Where two headings read alike, the source gives them in different places.
Assays:
B16 murine melanoma = test: Anti-tumour activity of C17 against B16 melanoma (tumour weight inhibition); assay type: in vivo, female C57/black mice
HIV-1 infection = test: Pilot study of C17 in patients with HIV-1 infection and HIV-related Kaposi's sarcoma; assay type: in vivo, humans; parameters: CD4 ABS / CD8 ABS: unit not given here
[1] = In vitro anti-tumour activity; assay type: cell-based; conditions: compound appears to require activation in the liver
[2] = mice, preliminary data
[3] = rats, preliminary data
in vivo [4] = conditions: mouse, iv
in vivo [5] = conditions: rat, iv
in vitro = conditions: CC50 (Toxicity)
[6] = Anti-tumour activity against M5076 solid tumour (tumour weight inhibition); assay type: in vivo, murine; conditions: mouse, in vivo; ip, per day, in corn oil; M5076 study; read-out: Maximum tolerated dose
Description: (§1) The in vivo anti-tumour responses of the compound according to the invention were assessed against the ascitic tumours, MAC15A murine colon adenocarcinoma and various solid tumour models. The MAC15A ascites tumour cells were transplanted into male NMR1 mice by ip innoculation at a cell density of 1 x 10^5 cells in 200µl buffer (Table I). The solid tumour models included the MAC13 and MAC16 murine colon adenocarcinomas, the B16 F1 murine melanoma and the M5076 reticulum cell sarcoma.
(§2) Treatment commenced 3 days after ip transplant or, in the case of solid tumours such as MAC13 and MAC16, treatment commenced when average tumour volumes reached 40mm^3.
(§3) The animals were located in both cases into groups of 5 to 8 animals.
(§4) The animals were sacrificed after 12 days or when tumours ulcerated, tumour volume exceeded 1000mm^3 or loss of body weight exceeded 50%.
(§5) Except where otherwise stated, the compound used was dissolved in DMSO and diluted in sterile distilled water, at appropriate concentrations before administration in a solvent volume of 200µl. Anti-tumour responses were obtained by comparing the median survival times or tumour growth inhibition against solvent controls.
(§6) % Tumour Weight Inhibition:-

[7] = tested on: M5076-reticulum cell sarcoma; test: as above; assay type: in vivo, murine; conditions: for % Tumour Weight Inhibition: days 1,2,3,4,5,6,7,8,9, 16 days after im transplant, corn oil
Description: as §1, §2, §3, §4, §5, §6

HIV-I IIIB = test: Acute infection assay, HIV core antigen ELISA (HIV-I IIIB); assay type: cell-based
[8] = day 7, MTD by 5 consecutive daily intravenous injections

SMILES: O=C(O)c1cc([N+](=O)[O-])ccc1Cl [C17, 2-chloro-5-nitrobenzoic acid]
- % Tumour Weight Inhibition (B16 murine melanoma; 700 mg/kg per day ip, days 1,2,3,4,5,6, 12 days after sc transplant, 6 animals per group): 62%
- anti-tumour activity in vivo (in words) (B16 murine melanoma; refers to Table 6): considerable anti-tumour activity
- CD4 ABS (HIV-1 infection; Patient 1, After (day 20), Before (day 1): 0.399, 10mg/kg body weight/day im 5 days weekly): 0.760
- CD8 ABS (HIV-1 infection; Patient 1, After (day 20), Before (day 1): 0.567, 10mg/kg body weight/day im 5 days weekly): 0.840
- CD4/CD8 (HIV-1 infection; Patient 1, After (day 20), Before (day 1): 0.70, 10mg/kg body weight/day im 5 days weekly): 0.90
- Lymphocytes (HIV-1 infection; Patient 1, After (day 20), Before (day 1): 2.1, 10mg/kg body weight/day im 5 days weekly): 2.0 x 10^3mm^-3
- CD4 % (HIV-1 infection; Patient 1, After (day 20), Before (day 1): 19, 10mg/kg body weight/day im 5 days weekly): 38%
- CD4 ABS (HIV-1 infection; Patient 2, After (day 14), Before (day 1): 0.360, 10mg/kg body weight/day im 5 days weekly): 0.513
- CD4/CD8 (HIV-1 infection; Patient 2, After (day 14), Before (day 1): 0.38, 10mg/kg body weight/day im 5 days weekly): 0.59
- CD8 ABS (HIV-1 infection; Patient 2, After (day 14), Before (day 1): 0.940, 10mg/kg body weight/day im 5 days weekly): 0.874
- Lymphocytes (HIV-1 infection; Patient 2, After (day 14), Before (day 1): 2.0, 10mg/kg body weight/day im 5 days weekly): 1.9 x 10^3mm^-3
- CD4 % (HIV-1 infection; Patient 2, After (day 14), Before (day 1): 18, 10mg/kg body weight/day im 5 days weekly): 27%
- CD4 ABS (HIV-1 infection; Patient 3, After (day 20), Before (day 1): 0.072, 10mg/kg body weight/day im 5 days weekly): 0.187
- CD8 ABS (HIV-1 infection; Patient 3, After (day 20), Before (day 1): 0.270, 10mg/kg body weight/day im 5 days weekly): 0.682
- CD4/CD8 (HIV-1 infection; Patient 3, After (day 20), Before (day 1): 0.27, 10mg/kg body weight/day im 5 days weekly): 0.27
- Lymphocytes (HIV-1 infection; Patient 3, After (day 20), Before (day 1): 0.9, 10mg/kg body weight/day im 5 days weekly): 1.1 x 10^3mm^-3
- CD4 % (HIV-1 infection; Patient 3, After (day 20), Before (day 1): 8, 10mg/kg body weight/day im 5 days weekly): 17%
- CD4/CD8 (HIV-1 infection; Patient 4, After (day 14), Before (day 1): 0.08, 10mg/kg body weight/day im 5 days weekly): 0.35
- CD4 ABS (HIV-1 infection; Patient 4, After (day 14), Before (day 1): 0.108, 10mg/kg body weight/day im 5 days weekly): 0.440
- CD8 ABS (HIV-1 infection; Patient 4, After (day 14), Before (day 1): 1.350, 10mg/kg body weight/day im 5 days weekly): 1.260
- Lymphocytes (HIV-1 infection; Patient 4, After (day 14), Before (day 1): 1.8, 10mg/kg body weight/day im 5 days weekly): 2.0 x 10^3mm^-3
- CD4 % (HIV-1 infection; Patient 4, After (day 14), Before (day 1): 6, 10mg/kg body weight/day im 5 days weekly): 22%
- CD4/CD8 (HIV-1 infection; Patient 5, After (day 21), Before (day 1): 0.56, 10mg/kg body weight/day im 5 days weekly): 0.66
- CD4 ABS (HIV-1 infection; Patient 5, After (day 21), Before (day 1): 0.812, 10mg/kg body weight/day im 5 days weekly): 1.023
- CD8 ABS (HIV-1 infection; Patient 5, After (day 21), Before (day 1): 1.456, 10mg/kg body weight/day im 5 days weekly): 1.550
- Lymphocytes (HIV-1 infection; Patient 5, After (day 21), Before (day 1): 2.8, 10mg/kg body weight/day im 5 days weekly): 3.1 x 10^3mm^-3
- CD4 % (HIV-1 infection; Patient 5, After (day 21), Before (day 1): 29, 10mg/kg body weight/day im 5 days weekly): 33%
- CD4/CD8 (HIV-1 infection; Patient 6 (AIDS-related Kaposi's sarcoma), After (day 34), Before (day 1): 0.31, 10mg/kg body weight/day im 5 days weekly): 0.47
- CD4 ABS (HIV-1 infection; Patient 6 (AIDS-related Kaposi's sarcoma), After (day 34), Before (day 1): 0.378, 10mg/kg body weight/day im 5 days weekly): 0.437
- CD8 ABS (HIV-1 infection; Patient 6 (AIDS-related Kaposi's sarcoma), After (day 34), Before (day 1): 1.218, 10mg/kg body weight/day im 5 days weekly): 0.931
- Lymphocytes (HIV-1 infection; Patient 6 (AIDS-related Kaposi's sarcoma), After (day 34), Before (day 1): 2.1, 10mg/kg body weight/day im 5 days weekly): 1.9 x 10^3mm^-3
- CD4 % (HIV-1 infection; Patient 6 (AIDS-related Kaposi's sarcoma), After (day 34), Before (day 1): 18, 10mg/kg body weight/day im 5 days weekly): 23%
- sarcoma lesions (in words) (HIV-1 infection; Patient 6, AIDS-related Kaposi's sarcoma): disappeared
- CD4 counts (in words) (HIV-1 infection; all 6 patients, about 2 weeks after the beginning of the therapy, 10mg/kg body weight/day im 5 days weekly): showed an increase
- patient general condition (in words) (HIV-1 infection; including weight gain and a marked decrease in opportunistic infections and diarrhea): clinical improvements
- anti-tumour activity in vitro (in words) [1]: could not be supported in vitro
- red blood cell count, haemoglobin concentration, macrophage count, white blood cell count (WBC), lymphocyte count and haematocrit (HTC) [2, 8]: increases
- red blood cell count, haemoglobin concentration, macrophage count, white blood cell count (WBC), lymphocyte count and haematocrit (HTC) ([2]; day 14): returned to normal
- red blood cell count, haemoglobin concentration, macrophage count, white blood cell count (WBC), lymphocyte count and haematocrit (HTC) [3, 8]: increases
- red blood cell count, haemoglobin concentration, macrophage count, white blood cell count (WBC), lymphocyte count and haematocrit (HTC) ([3]; day 14): returned to normal
- MTD at 5 days (in vivo [4]): 950 mg/kg/day
- MTD at 5 days (in vivo [5]): 900 mg/kg/day
- CC50 (in vitro): > 1000 µM

SMILES: COC(=O)c1cc([N+](=O)[O-])c(Cl)c([N+](=O)[O-])c1Cl [C3, 2,4-dichloro-3,5-dinitrobenzoic acid methyl ester]
- MTD [6]: 1 mg/kg
- anti-tumour activity (in words) [7]: without anti-tumour activity
- % Tumour Weight Inhibition ([7]; 0.25 mg/kg per day ip): 42%
- % Tumour Weight Inhibition ([7]; 0.5 mg/kg per day ip): 39%
- % Tumour Weight Inhibition ([7]; 1.0 mg/kg per day ip): 41%
- increase in toxicity ([7]; relative to 2,4-dichloro-3,5-dinitrobenzoic acid): 10 fold
- SI (Selectivity Index) (HIV-I IIIB): 23
- CC50 (uninfected cells): 7 µM

— patent publication EP0751768B1, “ANTI-VIRAL AND ANTI-CANCER AGENT” (Radopath Pharmaceuticals International Limited, priority 1994, dated 1995)
